Experimental data reported in the supplement of paper PMC13380429.

Assays:
Settings in all cases: 72 h
Calu-3 [1] = assay: drug sensitivity score (DSS) for viability; higher = more toxic; extreme values may be limits of the assay
Vero E6 [2] = assay: as above
Caco-2 [3] = assay: as above
U2OS [4] = assay: as above
HepG2 [5] = assay: as above
Calu-3 [6] = assay: cell viability relative to DMSO; higher = less toxic
Vero E6 [7] = assay: as above
Caco-2 [8] = assay: as above
U2OS [9] = assay: as above
HepG2 [10] = assay: as above
Calu-3 [11] = assay: relative viability EC50 (midpoint between 100% and the lowest measured viability); higher = less toxic
Vero E6 [12] = assay: as above
Caco-2 [13] = assay: as above
U2OS [14] = assay: as above
HepG2 [15] = assay: as above

SMILES	drug sensitivity score (Calu-3 [1])	drug sensitivity score (Vero E6 [2])	drug sensitivity score (Caco-2 [3])	drug sensitivity score (U2OS [4])	drug sensitivity score (HepG2 [5])	cell viability (Calu-3 [6]; 1 nM)	cell viability (Calu-3 [6]; 10 nM)	cell viability (Calu-3 [6]; 100 nM)	cell viability (Calu-3 [6]; 1000 nM)	cell viability (Calu-3 [6]; 10000 nM)	cell viability (Vero E6 [7]; 1 nM)	cell viability (Vero E6 [7]; 10 nM)	cell viability (Vero E6 [7]; 100 nM)	cell viability (Vero E6 [7]; 1000 nM)	cell viability (Vero E6 [7]; 10000 nM)	cell viability (Caco-2 [8]; 1 nM)	cell viability (Caco-2 [8]; 10 nM)	cell viability (Caco-2 [8]; 100 nM)	cell viability (Caco-2 [8]; 1000 nM)	cell viability (Caco-2 [8]; 10000 nM)	cell viability (U2OS [9]; 1 nM)	cell viability (U2OS [9]; 10 nM)	cell viability (U2OS [9]; 100 nM)	cell viability (U2OS [9]; 1000 nM)	cell viability (U2OS [9]; 10000 nM)	cell viability (HepG2 [10]; 1 nM)	cell viability (HepG2 [10]; 10 nM)	cell viability (HepG2 [10]; 100 nM)	cell viability (HepG2 [10]; 1000 nM)	cell viability (HepG2 [10]; 10000 nM)	relative viability EC50 (Calu-3 [11])	relative viability EC50 (Vero E6 [12])	relative viability EC50 (Caco-2 [13])	relative viability EC50 (U2OS [14])	relative viability EC50 (HepG2 [15])
O=P(O)(O)C(O)(Cc1cccnc1)P(=O)(O)O [risedronate]	0	0	0	0	0	97.9%	98.7%	103%	99.2%	104%	93.1%	98.7%	93%	94.8%	104%	95.6%	103%	94.1%	97.8%	94.7%	102%	96.1%	98%	96.2%	96%	83.2%	97.1%	95.5%	93.2%	101%	> 10 µM	> 10 µM	> 10 µM	> 10 µM	> 10 µM
COc1cc(NC(=O)c2cccc(-n3cc(NC(=O)Nc4cccc(C)c4)cn3)c2)cc(OC)c1OC [SR-3576]	0.6	0	1.3	0	0	91.1%	93.9%	93.4%	93.1%	81%	101%	102%	97.2%	96.6%	95.9%	104%	105%	101%	85.2%	87.7%	100%	102%	100%	99.6%	91.1%	98.3%	99.4%	94.1%	95.3%	99.4%	> 10 µM	> 10 µM	> 10 µM	> 10 µM	> 10 µM
COc1cccc2c1C(=O)c1c(O)c3c(c(O)c1C2=O)C[C@@](O)(C(C)=O)C[C@@H]3O[C@H]1C[C@H](N)[C@H](O)[C@H](C)O1 [daunorubicin]	16.9	10.8	15.8	20.7	25.7	99.7%	96%	69.3%	29.4%	16.1%	93.7%	97.8%	87.9%	54.3%	4.6%	86.3%	93.4%	74.6%	29.8%	28%	96.6%	103%	80.9%	2.4%	0.1%	108%	75.8%	43.3%	2%	0.2%	0.177 µM	0.963 µM	0.145 µM	0.187 µM	0.059 µM
O=C(/C=C/c1ccc(O)c(O)c1)O[C@H](Cc1ccc(O)c(O)c1)C(=O)O [rosmarinic-acid]	0.4	0	0	0	0	105%	109%	101%	88.5%	94.5%	102%	103%	99.1%	96.4%	99.6%	91.5%	102%	87.7%	99.1%	88%	101%	103%	94.8%	104%	98.6%	98.8%	111%	106%	96.7%	102%	> 10 µM	> 10 µM	> 10 µM	> 10 µM	> 10 µM
CC(CNC1CCCCC1)OC(=O)c1ccccc1 (stereo not given) [hexylcaine]	0	0	0	0	0	104%	107%	95.2%	103%	95.5%	97.3%	102%	96.8%	93.1%	105%	99%	88.5%	98%	105%	102%	103%	101%	99.1%	103%	104%	106%	102%	91%	88.5%	102%	> 10 µM	> 10 µM	> 10 µM	> 10 µM	> 10 µM
COCc1nc2c([nH]1)c(=O)n(C)c(=O)n2CC(C)C [MMPX]	0	0	0	0	0	102%	100%	98.1%	103%	96%	97.8%	94.2%	99.2%	97.5%	99.2%	91.8%	91.8%	96.9%	95.7%	96.3%	95.8%	100%	96.4%	104%	98.2%	98%	94%	101%	94.9%	100%	> 10 µM	> 10 µM	> 10 µM	> 10 µM	> 10 µM
CCCCCCCCCCCCCCCCCC(=O)OC[C@@H](O)[C@H]1OC[C@H](O)[C@H]1O [sorbitan-monostearate]	0	0	0	0	0	101%	92.9%	94.1%	108%	101%	99.5%	102%	97.2%	100%	101%	92.1%	104%	87.4%	100%	98.7%	102%	102%	101%	107%	99.9%	93.7%	89.2%	98.7%	102%	108%	> 10 µM	> 10 µM	> 10 µM	> 10 µM	> 10 µM
CC(C)c1cc(-c2ccc(F)c3ccccc23)nc(N)n1	0	0	0	0	0	80.3%	103%	99.7%	107%	108%	94.1%	98.6%	98.8%	102%	107%	90.7%	101%	102%	92.7%	101%	93.1%	96.6%	98.7%	97.9%	100%	103%	119%	99.2%	99.3%	113%	> 10 µM	> 10 µM	> 10 µM	> 10 µM	> 10 µM
Nc1nccc(/C=C/c2ccccc2)n1 [TCN238]	0	0	0.4	0	0	98.7%	97.9%	99.4%	102%	103%	104%	98.6%	101%	97.7%	103%	89.6%	98%	89.2%	100%	83.2%	96%	99.9%	97.6%	103%	97.5%	110%	92.9%	112%	97.3%	105%	> 10 µM	> 10 µM	> 10 µM	> 10 µM	> 10 µM
CC[C@H](C)[C@H](N)C(=O)O [isoleucine]	0	0	0	0	0	101%	89.1%	91.1%	99.9%	103%	92.1%	97.3%	96.4%	95.4%	106%	88.4%	100%	99.3%	94.5%	108%	101%	96.8%	96.3%	107%	106%	99.5%	95.6%	104%	90.8%	97.4%	> 10 µM	> 10 µM	> 10 µM	> 10 µM	> 10 µM
C[C@H](c1ccc(F)cc1CCCC(=O)O)N(c1cc(F)ccc1F)S(=O)(=O)c1ccc(Cl)cc1	0	0	0.1	0	0	105%	98.9%	99.4%	103%	103%	103%	100%	102%	103%	98.8%	101%	97.5%	112%	92.6%	89.5%	101%	93.5%	97.8%	93.1%	96.2%	93.1%	103%	94%	98.8%	93.6%	> 10 µM	> 10 µM	> 10 µM	> 10 µM	> 10 µM
Cc1cccc(-c2nn3c(c2-c2ccnc4ccc(C(N)=O)cc24)CCC3)n1	0	0	0	0	0	95.4%	108%	91.4%	105%	113%	98.9%	99%	101%	99.9%	113%	96.9%	87.8%	93.1%	100%	109%	98.3%	99.5%	95.8%	96%	92.6%	103%	96.5%	106%	99.4%	106%	> 10 µM	> 10 µM	> 10 µM	> 10 µM	> 10 µM
CNCc1cc(-c2ccccc2F)n(S(=O)(=O)c2cccnc2)c1 [vonoprazan]	0	0	0	0	0	99.8%	96.7%	94.9%	96.6%	105%	103%	99.4%	97.9%	99.7%	98.9%	97.5%	100%	102%	100%	96.4%	95.4%	100%	98.1%	102%	94.4%	101%	93.6%	100%	94.3%	107%	> 10 µM	> 10 µM	> 10 µM	> 10 µM	> 10 µM
